According to PMC12675575, “A BRET biosensor for measuring uncompetitive engagement of PRMT5 complexes in cells” (Nature Communications, 2025):
“And” between values parts separate entries of the source, which are not always exact repeats. Identical values can stand only once.

Tests used:
RIPK2 = target: T1, RIPK2 (Homo sapiens, UniProt O43353); test: CBH-002 affinity curve, HEK293, RIPK2-NL fusion (cytosolic control); type: cell-based; parameters: BRET, CBH-002 + DMSO / BRET, CBH-002 + GSK3326595: unit not given here; settings: for BRET, CBH-002 + DMSO / BRET, CBH-002 + GSK3326595: Figure S2E RIPK2-NL, log([CBH-002])
T1 construct: host or cells: HEK293
Experimental: (§1) HEK293 cells (ATCC) were cultured in DMEM (Thermo Fisher) + 10% (v/v) FBS (Seredigm), and HCT116 cells (Horizon Discovery, #PAR-034 and #R02-033) were cultured in McCoy’s 5A (Thermo Fisher) + 10% FBS, with incubation in a humidified, 37 °C/5% CO2 incubator. Cells were split 1–3 days prior to performing experiments and used at roughly 80% confluency. […] Cells were transfected according to the manufacturer’s protocol using FuGENE HD (Promega). NanoLuc fusion DNA was diluted into Transfection Carrier DNA (Promega) in Opti-MEM at a ratio of 1:9 (mass/mass), and FuGENE HD was added at a ratio of 1:3 (μg DNA:μL lipid). For experiments using WDR77, untagged WDR77 DNA (Promega) was used in place of Carrier DNA. Formed complexes were combined with cells resuspended to a density of 2 × 10^5 cells/mL in Opti-MEM + 1% FBS at a ratio of 1:20 (vol:vol). Cells were plated into a flask and incubated at 37 °C in a humidified 5% CO2 atmosphere for 18–24 h, before being lifted and seeded into 96-well non-binding surface-treated plates (Corning). Cells were seeded at a density of 2 × 10^5 cells/mL in Opti-MEM + 1% FBS in 100 μL (96-well). The BRET probe CBH-002 was prepared first as a 100× stock in 100% DMSO (Sigma) and then diluted to a 20× stock in NanoBRET Tracer Dilution buffer (Promega). Test compounds were prepared as 1000× stocks in 100% DMSO and diluted to 10× stocks in Opti-MEM to prepare working stocks. […] NanoBRET Complete 3x Substrate was prepared by combining Nano-Glo Substrate and Extracellular NanoLuc Inhibitor in Opti-MEM, according to the manufacturer’s protocol (Promega). NanoBRET Complete 3× Substrate was added to cells and plates were measured on either a PheraSTAR FSX equipped with 450 nm (donor) and 610 nm (acceptor) filters, or a GloMAX Discover equipped with 450/8 nm BP (donor) and 600 nm LP (acceptor) filters, using a 0.3 s integration time.
(§2) EC50 values were obtained by fitting the BRET probe and compound affinity curves to a sigmoidal four-parameter fit model in Graphpad Prism:1 Y=Ymin+Ymax−Ymin/1+10^LogEC50−Xh where h is the Hill Slope.

BRD9 = target: T2, BRD9 (Homo sapiens, UniProt Q9H8M2); test: CBH-002 affinity curve, HEK293, NL-BRD9 fusion (nuclear control); type: cell-based; parameters: BRET, CBH-002 + DMSO / BRET, CBH-002 + GSK3326595: unit not given here; settings: for BRET, CBH-002 + DMSO / BRET, CBH-002 + GSK3326595: Figure S2F NL-BRD9, log([CBH-002])
T2 construct: host or cells: HEK293
T2 sequence (Q9H8M2 1-597): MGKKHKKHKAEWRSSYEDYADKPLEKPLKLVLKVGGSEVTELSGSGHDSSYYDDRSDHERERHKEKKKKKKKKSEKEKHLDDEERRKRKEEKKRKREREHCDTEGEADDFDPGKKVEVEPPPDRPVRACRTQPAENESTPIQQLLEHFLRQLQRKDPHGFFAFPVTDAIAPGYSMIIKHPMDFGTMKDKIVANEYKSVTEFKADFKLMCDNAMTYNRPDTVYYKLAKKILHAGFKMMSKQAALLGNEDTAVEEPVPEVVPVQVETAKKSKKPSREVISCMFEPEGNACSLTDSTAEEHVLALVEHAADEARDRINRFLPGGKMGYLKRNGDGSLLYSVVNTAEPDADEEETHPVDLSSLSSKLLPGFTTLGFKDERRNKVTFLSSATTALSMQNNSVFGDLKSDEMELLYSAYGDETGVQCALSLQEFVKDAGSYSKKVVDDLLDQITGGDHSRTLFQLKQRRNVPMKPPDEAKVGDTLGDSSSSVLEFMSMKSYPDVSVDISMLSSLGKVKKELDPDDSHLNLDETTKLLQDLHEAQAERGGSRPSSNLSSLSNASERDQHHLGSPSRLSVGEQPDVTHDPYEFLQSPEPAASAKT
Experimental: as §1, §2

T1 sequence (O43353 whole entry, the tested form may be a part): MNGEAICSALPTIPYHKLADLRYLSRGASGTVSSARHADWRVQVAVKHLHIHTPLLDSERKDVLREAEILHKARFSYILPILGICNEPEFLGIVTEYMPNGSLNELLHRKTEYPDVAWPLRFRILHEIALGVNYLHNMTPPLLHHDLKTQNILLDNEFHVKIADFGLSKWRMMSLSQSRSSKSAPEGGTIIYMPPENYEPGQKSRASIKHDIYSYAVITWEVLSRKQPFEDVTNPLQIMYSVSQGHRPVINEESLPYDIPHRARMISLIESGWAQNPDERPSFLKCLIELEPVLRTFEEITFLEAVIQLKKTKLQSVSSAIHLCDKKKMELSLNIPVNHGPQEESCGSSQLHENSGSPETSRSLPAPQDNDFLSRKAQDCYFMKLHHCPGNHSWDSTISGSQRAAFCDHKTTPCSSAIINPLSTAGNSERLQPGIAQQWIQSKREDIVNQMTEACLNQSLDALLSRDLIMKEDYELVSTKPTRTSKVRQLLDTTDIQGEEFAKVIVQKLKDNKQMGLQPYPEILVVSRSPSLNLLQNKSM

## O=C(CCc1ccc2n1[B-](F)(F)[N+]1=C(c3ccc[nH]3)C=CC1=C2)NCCCCC(=O)N1CCC(Nc2cc(C(=O)NC[C@H](O)CN3CCc4ccccc4C3)ncn2)CC1 [CBH-002]
RIPK2; uM 0.04576
  BRET, CBH-002 + DMSO: 1.852 and 1.939 and 2.142
  BRET, CBH-002 + GSK3326595: 1.842 and 1.813 and 1.9392
RIPK2; uM 0.52288
  BRET, CBH-002 + DMSO: 5.1141 and 4.646 and 5.258
  BRET, CBH-002 + GSK3326595: 4.515 and 4.266 and 4.4734
RIPK2; uM 1
  BRET, CBH-002 + DMSO: 11.7522 and 11.9286 and 12.3306
  BRET, CBH-002 + GSK3326595: 11.5342 and 11.3369 and 11.377
RIPK2; uM -0.43136
  BRET, CBH-002 + DMSO: 0.8543 and 0.8172 and 0.8282
  BRET, CBH-002 + GSK3326595: 0.5912 and 0.5546 and 0.9723
RIPK2; HEK293, RIPK2-NL
  CBH-002 engagement at RIPK2: did not show engagement
BRD9; uM 0.04576
  BRET, CBH-002 + DMSO: 1.963 and 1.6096 and 1.753
  BRET, CBH-002 + GSK3326595: 1.941 and 1.894 and 1.502
BRD9; uM 0.52288
  BRET, CBH-002 + DMSO: 4.746 and 4.673 and 4.368
  BRET, CBH-002 + GSK3326595: 4.553 and 4.659 and 4.5888
BRD9; uM 1
  BRET, CBH-002 + DMSO: 11.9924 and 12.071 and 11.0213
  BRET, CBH-002 + GSK3326595: 12.0831 and 11.2046 and 11.118
BRD9; uM -0.43136
  BRET, CBH-002 + DMSO: 0.6619 and 0.5821 and 0.5347
  BRET, CBH-002 + GSK3326595: 0.7878 and 0.6009 and 0.5811
BRD9; HEK293, NL-BRD9
  CBH-002 engagement at BRD9 (printed BDR9): did not show engagement
